Laboratory results from PubChem BioAssay (NCI).
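All cell lines were grown in 96-well plates and treated with compound for 48 hours. GI50 = concentration required for 50% inhibition of growth. TGI: total growth inhibition.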

Legend:
Test in all cases: NCI tumour cell line growth inhibition, 48 h
TK-10 renal = system: TK-10 renal
MDA-MB-435 = system: MDA-MB-435
HT29 colon = system: HT29 colon
OVCAR-4 ovarian = system: OVCAR-4 ovarian
DU-145 prostate = system: DU-145 prostate
NCI/ADR-RES ovarian = system: NCI/ADR-RES ovarian
ACHN renal = system: ACHN renal
HCT-15 colon = system: HCT-15 colon
SNB-75 CNS = system: SNB-75 CNS
SF-539 CNS = system: SF-539 CNS
CAKI-1 renal = system: CAKI-1 renal
BT-549 breast = system: BT-549 breast
OVCAR-5 ovarian = system: OVCAR-5 ovarian
SR leukemia = system: SR leukemia
A498 renal = system: A498 renal
CCRF-CEM leukemia = system: CCRF-CEM leukemia
PC-3 prostate = system: PC-3 prostate
UACC-62 melanoma = system: UACC-62 melanoma
SK-OV-3 ovarian = system: SK-OV-3 ovarian
SF-295 CNS = system: SF-295 CNS
MOLT-4 leukemia = system: MOLT-4 leukemia
SN12C renal = system: SN12C renal
SK-MEL-28 melanoma = system: SK-MEL-28 melanoma
HS 578T breast = system: HS 578T breast
U251 CNS = system: U251 CNS
MALME-3M melanoma = system: MALME-3M melanoma
LOX IMVI melanoma = system: LOX IMVI melanoma
UACC-257 melanoma = system: UACC-257 melanoma
HCC-2998 colon = system: HCC-2998 colon
SK-MEL-2 melanoma = system: SK-MEL-2 melanoma
EKVX NSCLC = system: EKVX NSCLC
SNB-19 CNS = system: SNB-19 CNS
M14 melanoma = system: M14 melanoma
OVCAR-3 ovarian = system: OVCAR-3 ovarian
K-562 leukemia = system: K-562 leukemia
HOP-62 NSCLC = system: HOP-62 NSCLC
NCI-H522 lung = system: NCI-H522 lung
SK-MEL-5 melanoma = system: SK-MEL-5 melanoma
786-0 renal = system: 786-0 renal
MCF7 breast = system: MCF7 breast
HL-60(TB) leukemia = system: HL-60(TB) leukemia
NCI-H226 lung = system: NCI-H226 lung
UO-31 renal = system: UO-31 renal
SF-268 CNS = system: SF-268 CNS
IGROV1 ovarian = system: IGROV1 ovarian
HOP-92 NSCLC = system: HOP-92 NSCLC
NCI-H460 lung = system: NCI-H460 lung
NCI-H23 lung = system: NCI-H23 lung
KM12 colon = system: KM12 colon
MDA-MB-231 breast = system: MDA-MB-231 breast
SW-620 colon = system: SW-620 colon
RPMI-8226 leukemia = system: RPMI-8226 leukemia
A549 NSCLC = system: A549 NSCLC
HCT-116 colon = system: HCT-116 colon
OVCAR-8 ovarian = system: OVCAR-8 ovarian
RXF 393 renal = system: RXF 393 renal

CCCc1cn2c(/C=N/N=C(N)N)c(-c3ccc(Cl)c([N+](=O)[O-])c3)nc2s1
TGI (TK-10 renal): 2.91 µM | TGI (MDA-MB-435): 3.21 µM | TGI (HT29 colon): 2.04 µM | TGI (OVCAR-4 ovarian): 2.28 µM | TGI (DU-145 prostate): 3.15 µM | TGI (NCI/ADR-RES ovarian): 4.95 µM | TGI (ACHN renal): 3.06 µM | TGI (HCT-15 colon): 3.07 µM | TGI (SNB-75 CNS): 3.12 µM | TGI (SF-539 CNS): 3.31 µM | TGI (CAKI-1 renal): 3.28 µM | TGI (BT-549 breast): 3.08 µM | TGI (OVCAR-5 ovarian): 2.89 µM | TGI (SR leukemia): 2.75 µM | TGI (A498 renal): 3.2 µM | TGI (CCRF-CEM leukemia): 0.375 µM | TGI (PC-3 prostate): 3.53 µM | TGI (UACC-62 melanoma): 3.38 µM | TGI (SK-OV-3 ovarian): 2.86 µM | TGI (SF-295 CNS): 3.1 µM | TGI (MOLT-4 leukemia): 0.546 µM | TGI (SN12C renal): 3.33 µM | TGI (SK-MEL-28 melanoma): 3.1 µM

Cc1[nH]nc2ncc(C(=O)N3CCC[C@H]3c3ccc(Cl)cc3)cc12
GI50 (TK-10 renal): 94.2 µM | TGI (TK-10 renal): > 100 µM | GI50 (HS 578T breast): > 100 µM | TGI (HS 578T breast): > 100 µM | GI50 (U251 CNS): > 100 µM | TGI (U251 CNS): > 100 µM | GI50 (MALME-3M melanoma): > 100 µM | TGI (MALME-3M melanoma): > 100 µM | GI50 (MDA-MB-435): 98.1 µM | TGI (MDA-MB-435): > 100 µM | GI50 (LOX IMVI melanoma): 47.2 µM | TGI (LOX IMVI melanoma): > 100 µM | GI50 (UACC-257 melanoma): > 100 µM | TGI (UACC-257 melanoma): > 100 µM | GI50 (HT29 colon): > 100 µM | TGI (HT29 colon): > 100 µM | GI50 (HCC-2998 colon): > 100 µM | TGI (HCC-2998 colon): > 100 µM | GI50 (OVCAR-4 ovarian): 96.6 µM | TGI (OVCAR-4 ovarian): > 100 µM | GI50 (SK-MEL-2 melanoma): > 100 µM | TGI (SK-MEL-2 melanoma): > 100 µM | GI50 (EKVX NSCLC): 79.8 µM | TGI (EKVX NSCLC): > 100 µM | GI50 (SNB-19 CNS): > 100 µM | TGI (SNB-19 CNS): > 100 µM | GI50 (M14 melanoma): > 100 µM | TGI (M14 melanoma): > 100 µM | GI50 (OVCAR-3 ovarian): 64.2 µM | TGI (OVCAR-3 ovarian): > 100 µM | GI50 (DU-145 prostate): > 100 µM | TGI (DU-145 prostate): > 100 µM | GI50 (K-562 leukemia): 37.1 µM | TGI (K-562 leukemia): > 100 µM | GI50 (HOP-62 NSCLC): > 100 µM | TGI (HOP-62 NSCLC): > 100 µM | GI50 (NCI-H522 lung): > 100 µM | TGI (NCI-H522 lung): > 100 µM | GI50 (NCI/ADR-RES ovarian): > 100 µM | TGI (NCI/ADR-RES ovarian): > 100 µM | GI50 (ACHN renal): 36.3 µM | TGI (ACHN renal): > 100 µM | GI50 (SK-MEL-5 melanoma): 31 µM | TGI (SK-MEL-5 melanoma): > 100 µM | GI50 (HCT-15 colon): 58.3 µM | TGI (HCT-15 colon): > 100 µM | GI50 (786-0 renal): 47.7 µM | TGI (786-0 renal): > 100 µM | GI50 (SNB-75 CNS): 84.4 µM | TGI (SNB-75 CNS): > 100 µM | GI50 (MCF7 breast): 41.6 µM | TGI (MCF7 breast): > 100 µM | GI50 (SF-539 CNS): 44.4 µM | TGI (SF-539 CNS): > 100 µM | GI50 (HL-60(TB) leukemia): 32.6 µM | TGI (HL-60(TB) leukemia): 90.7 µM | GI50 (CAKI-1 renal): > 100 µM | TGI (CAKI-1 renal): > 100 µM | GI50 (NCI-H226 lung): 64.1 µM | TGI (NCI-H226 lung): > 100 µM | GI50 (BT-549 breast): 50.6 µM | TGI (BT-549 breast): > 100 µM | GI50 (OVCAR-5 ovarian): > 100 µM | TGI (OVCAR-5 ovarian): > 100 µM | GI50 (UO-31 renal): 61.2 µM | TGI (UO-31 renal): > 100 µM | GI50 (SF-268 CNS): > 100 µM | TGI (SF-268 CNS): > 100 µM | GI50 (IGROV1 ovarian): 66.1 µM | TGI (IGROV1 ovarian): > 100 µM | GI50 (HOP-92 NSCLC): 80.7 µM | TGI (HOP-92 NSCLC): > 100 µM | GI50 (NCI-H460 lung): > 100 µM | TGI (NCI-H460 lung): > 100 µM | GI50 (A498 renal): 32.5 µM | TGI (A498 renal): > 100 µM | GI50 (CCRF-CEM leukemia): 36.1 µM | TGI (CCRF-CEM leukemia): > 100 µM | GI50 (NCI-H23 lung): > 100 µM | TGI (NCI-H23 lung): > 100 µM | GI50 (KM12 colon): 51.6 µM | TGI (KM12 colon): > 100 µM | GI50 (PC-3 prostate): 45.6 µM | TGI (PC-3 prostate): > 100 µM | GI50 (MDA-MB-231 breast): > 100 µM | TGI (MDA-MB-231 breast): > 100 µM | GI50 (SW-620 colon): 76 µM | TGI (SW-620 colon): > 100 µM | GI50 (RPMI-8226 leukemia): 63 µM | TGI (RPMI-8226 leukemia): > 100 µM | GI50 (A549 NSCLC): > 100 µM | TGI (A549 NSCLC): > 100 µM | GI50 (HCT-116 colon): 33.1 µM | TGI (HCT-116 colon): > 100 µM | GI50 (OVCAR-8 ovarian): > 100 µM | TGI (OVCAR-8 ovarian): > 100 µM | GI50 (UACC-62 melanoma): 44.1 µM | TGI (UACC-62 melanoma): > 100 µM | GI50 (SK-OV-3 ovarian): > 100 µM | TGI (SK-OV-3 ovarian): > 100 µM | GI50 (SF-295 CNS): 63.5 µM | TGI (SF-295 CNS): > 100 µM | GI50 (MOLT-4 leukemia): 72.1 µM | TGI (MOLT-4 leukemia): > 100 µM | GI50 (SN12C renal): > 100 µM | TGI (SN12C renal): > 100 µM | GI50 (SK-MEL-28 melanoma): > 100 µM | TGI (SK-MEL-28 melanoma): > 100 µM | GI50 (RXF 393 renal): 39.5 µM | TGI (RXF 393 renal): > 100 µM
